In patent publication US11390629B2, “1,5-disubstituted 1,2,3-triazoles are inhibitors of Rac/Cdc42 GTPases” (UNIVERSITY OF PUERTO RICO, priority 2016, dated 2022):

Columns and labels:
Format in all cases: cell-based, human
[1] = system: GFP-HER2-BM, MDA-MB-468, Hs578t, Mia-PaCa-2, SKOV3, AGS, NCI-N87, SH-SY5Y cells; assay: Bright field cell phenotype, other mesenchymal cancer cell lines; settings: 250 or 500 nM, 24 h
Description: FIG. 9. Human cancer cell phenotype following MBQ-167 treatment. Triple negative breast cancer (MDA-MB-468), aggressive pancreatic (Mia PaCa-2), ovarian (SKVO3), gastric carcinoma (AGS and NCI-N87) cell lines and a neuroblastoma (SH-SY5Y) cell line were treated with 0, 250 or 500 nM MBQ-167 for 24 h; Representative bright field images are shown for each cell line.
Human breast cancer cells were visualized by bright field microscopy following MBQ-167 treatment. At ≥100 nM, starting at six hours, MBQ-167 induced a loss of polarity in metastatic breast cancer cells. […] On the other hand, non-cancer mammary epithelial MCF10A and epithelial breast cancer MCF-7 cells were resistant to MBQ-167 and remained polarized and attached to each other and the substratum (FIG. 2A).

[2] = system: PAK1 and PAK2; assay: Western blot of PAK signaling (p-PAK, p-LIMK, p-cofilin), MDA-MB-231; settings: for reduction of PAK activity compared to vehicle: MDA-MB-231 and GFP-HER2-BM
Description: To investigate the effect of MBQ-167 on Rac/Cdc42 signaling, its effect on the major Rac/Cdc42 downstream effector PAK was investigated. The phosphorylation status of several PAK residues was analyzed by western blotting, as a measure of its activity. At 250 nM, 24 h treatment with MBQ-167 inhibited PAK1 and PAK2 phosphorylation at the T423/T402 and S199/S192 residues in the detached population of MDA-MB-231 cells. […] Even though PAK1^T423 phosphorylation was not inhibited in the attached cells, the reduction in the homologous PAK2 phosphorylation sites indicates a preferential inhibition of PAK2 in the attached cells (FIGS. 4A-1, 4A-2, FIG. 4B-1). […] The decrease in cofilin phosphorylation was evident after 12 h following 250 nM MBQ-167 (FIG. 4C), indicating activation of cofilin, which account for the observed actin cytoskeletal restructuring (FIG. 2B). […] Similarly, in the NCI-N87 human metastatic gastric cancer cell line, MBQ-167 inhibited the viability and the activity of PAK isoforms PAK1 and PAK4, which have been implicated in gastric cancer malignancy (FIG. 8B).

[3] = system: STAT3; assay: Western blot of STAT3 phosphorylation (Y705); settings: 24 h, attached and detached MDA-MB-231 and GFP-HER2-BM cells
From the text: FIGS. 12A, 12B. Effect of MBQ-167 on STAT3 activation and cell migration in GFP-HER2-BM metastatic cancer cells.

## CCn1c2ccccc2c2cc(-n3nncc3-c3ccccc3)ccc21 [I-1, 9-ethyl-3-(5-phenyl-1H-1,2,3-triazol-1-yl)-9H-carbazole]
[1]
  cell rounding and detachment phenotype: induced this phenotype
[2]; 250 nM
  LIMK (Y507/T508) and cofilin (S3) phosphorylation: both decreased
[2]; 250 nM, 24 h
  phosphorylation of PAK1 S144: dramatic increase
[2]; 250 nM, 24 h, detached population
  PAK1 and PAK2 phosphorylation at T423/T402 and S199/S192: inhibited
[2]; attached population
  reduction of PAK activity compared to vehicle: ~25%
[2]; detached cells
  reduction of PAK activity compared to vehicle: 90%
[3]
  effect on STAT3 activity: decreased STAT3 activity
